Assays:
Type in all cases: cell-based
[1] = tested on: Lactobacillus jensenii NCIMB 13279; assay: MIC against Lactobacillus jensenii; settings: substance alone
Experimental: (§1) The vaginal lactobacillus strains used are the NCIMB 4505 strain of Lactobacillus crispatus, the NCIMB 13279 strain of Lactobacillus jensenii and NCIMB 702820 strain of Lactobacillus gasseri. [table] The other assayed microbial strains were cultured in the liquid media and in the incubation conditions specified in table A, following the operating procedure described above. The assay was carried out in 96-well microtitre plates. 50 μl of substance solution at the “mother” concentration alongside 50 μl of liquid medium at double concentration were deposited in the first well of each of the 8 rows while 50 μl of liquid medium at normal concentration were deposited in the remaining 11 wells. Starting from the first well of each row, 50 μl volumes were transferred from each well to the subsequent one 10 times, thus obtaining a series of 11 dilutions after doubling. The 12th well of each row was kept substance-free as a function of positive control of the bacterial growth. Subsequently, 50 μl of diluted bacterial inoculum as specified previously were deposited in all wells of the plate, except for the 11th of each row. Only the liquid medium at single concentration but bacteria-free, was deposited in the 11th well, with the aim of providing negative control for each row. The described scheme was used for the assay with each of the assayed microbial strains. […]

[2] = tested on: Lactobacillus crispatus NCIMB 4505; assay: MBC against Lactobacillus crispatus; settings: substance alone
Experimental: (§2) The vaginal lactobacillus strains used are the NCIMB 4505 strain of Lactobacillus crispatus, the NCIMB 13279 strain of Lactobacillus jensenii and NCIMB 702820 strain of Lactobacillus gasseri. [table] The other assayed microbial strains were cultured in the liquid media and in the incubation conditions specified in table A, following the operating procedure described above. Immediately after determining the value of the MIC for each substance, a volume equivalent to 50 μl was taken from each well and streaked on the surface of plates containing the solid medium. The plates were subsequently incubated at the conditions indicated for each microbial strain. After incubation at 37° C. for 24 hours, the number of colonies grown on the medium surface was counted thus determining the number of bacteria that survived after 24 hours of contact with the substance at the concentration present in the well. The MBC value defined as the lowest concentration of each substance capable of reducing the bacterial load by 99.9% in the previously defined assay conditions was determined through comparison between the number of bacteria that survived in each well and that of the bacterial inoculum deposited initially.

[3] = tested on: Streptococcus agalactiae; assay: Minimum Inhibitory Concentration (MIC) on agarised medium against Streptococcus agalactiae
Experimental: The assay was carried out on an M-Ha medium+blood at 5%. The medium was prepared at a concentration 33% higher with respect to the final one used in the test corresponding to the one indicated by the supplier. After sterilisation in autoclave, the medium was balanced at the temperature of 48° C. and added with horse blood at the concentration of 6.6% (33% higher than the final concentration of the assay). 15 ml aliquots of M-Ha medium+blood were transferred into 50 ml falcon test tubes maintained at 48° C., added with 5 ml of the dilutions of the substances to be assayed, mixed, poured into Petri dishes and left to solidify. Twenty-five bacterial inoculums, each with approximate volume of about 5 μl and containing about 10^5 ufc, were deposited on the surface of the M-Ha medium+blood of each plate. After incubation at 37° C. for 18 hours the minimum inhibitory concentration (MIC) defined as the minimum concentration of substance capable of inhibiting a bacterial growth noticeable to the naked eye at the area of deposition of the inoculums was read.
In the test with Streptococcus agalactiae the minimum inhibitory concentrations in the assay in liquid medium, regarding which only the bactericide minimum concentration values are indicated, could not be determined with sufficient reliability due to the turbidity of the solutions containing the substances. “Determination of the Minimum Inhibitory Concentration on Agarised Medium” was carried out to obtain the MIC values.

[4] = tested on: Lactobacillus jensenii NCIMB 13279; assay: MBC against Lactobacillus jensenii; settings: substance alone
Experimental: as §2

[5] = tested on: Lactobacillus gasseri NCIMB 702820; assay: MBC against Lactobacillus gasseri; settings: substance alone
Experimental: as §2

[6] = tested on: Lactobacillus crispatus NCIMB 4505; assay: MIC against Lactobacillus crispatus; settings: substance alone
Experimental: as §1

caprylyl/capryl glucoside/C8-C10 alkyl polyglucoside [Substance A1]
0.193%: MIC [1] | MBC [2] | MBC [4] | MBC [5]
0.093%: MIC (minimum inhibiting concentration) ([3]; strain 2, substance alone) | MIC (minimum inhibiting concentration) ([3]; strain 5, substance alone) | MIC (minimum inhibiting concentration) ([3]; strain 7, substance alone) | MIC (minimum inhibiting concentration) ([3]; strain 9, substance alone) | MIC (minimum inhibiting concentration) ([3]; strain 11, substance alone) | MIC (minimum inhibiting concentration) ([3]; strain 12, substance alone) | MIC (minimum inhibiting concentration) ([3]; strain 13, substance alone) | MIC (minimum inhibiting concentration) ([3]; strain 14, substance alone) | MIC (minimum inhibiting concentration) ([3]; strain 16, substance alone) | MIC (minimum inhibiting concentration) ([3]; strain 19, substance alone) | MIC (minimum inhibiting concentration) ([3]; strain 22, substance alone) | MIC (minimum inhibiting concentration) ([3]; strain 23, substance alone) | MIC (minimum inhibiting concentration) ([3]; strain 24, substance alone) | MIC (minimum inhibiting concentration) ([3]; strain 12386, substance alone) | MIC (minimum inhibiting concentration) ([3]; strain 12403, substance alone) | MIC (minimum inhibiting concentration) ([3]; strain 27956, substance alone)
0.097%: MIC [6]
0.19%: MIC (minimum inhibiting concentration) ([3]; strain 8, substance alone) | MIC (minimum inhibiting concentration) ([3]; strain 10, substance alone) | MIC (minimum inhibiting concentration) ([3]; strain 18, substance alone)
0.048%: MIC (minimum inhibiting concentration) ([3]; strain 6, substance alone) | MIC (minimum inhibiting concentration) ([3]; strain 15, substance alone) | MIC (minimum inhibiting concentration) ([3]; strain 17, substance alone) | MIC (minimum inhibiting concentration) ([3]; strain 20, substance alone) | MIC (minimum inhibiting concentration) ([3]; strain 21, substance alone) | MIC (minimum inhibiting concentration) ([3]; strain 25, substance alone)

lauryl glucoside/C12-C16 alkyl polyglucoside [Substance A2]
0.0097%: MIC (minimum inhibiting concentration) ([3]; strain 2, substance alone) | MIC (minimum inhibiting concentration) ([3]; strain 6, substance alone) | MIC (minimum inhibiting concentration) ([3]; strain 7, substance alone) | MIC (minimum inhibiting concentration) ([3]; strain 9, substance alone) | MIC (minimum inhibiting concentration) ([3]; strain 11, substance alone) | MIC (minimum inhibiting concentration) ([3]; strain 12, substance alone) | MIC (minimum inhibiting concentration) ([3]; strain 13, substance alone) | MIC (minimum inhibiting concentration) ([3]; strain 14, substance alone) | MIC (minimum inhibiting concentration) ([3]; strain 16, substance alone) | MIC (minimum inhibiting concentration) ([3]; strain 17, substance alone) | MIC (minimum inhibiting concentration) ([3]; strain 19, substance alone) | MIC (minimum inhibiting concentration) ([3]; strain 20, substance alone) | MIC (minimum inhibiting concentration) ([3]; strain 21, substance alone) | MIC (minimum inhibiting concentration) ([3]; strain 22, substance alone) | MIC (minimum inhibiting concentration) ([3]; strain 23, substance alone) | MIC (minimum inhibiting concentration) ([3]; strain 24, substance alone) | MIC (minimum inhibiting concentration) ([3]; strain 25, substance alone) | MIC (minimum inhibiting concentration) ([3]; strain 12386, substance alone) | MIC (minimum inhibiting concentration) ([3]; strain 12403, substance alone)
0.019%: MIC (minimum inhibiting concentration) ([3]; strain 5, substance alone) | MIC (minimum inhibiting concentration) ([3]; strain 8, substance alone) | MIC (minimum inhibiting concentration) ([3]; strain 10, substance alone) | MIC (minimum inhibiting concentration) ([3]; strain 15, substance alone) | MIC (minimum inhibiting concentration) ([3]; strain 18, substance alone) | MIC (minimum inhibiting concentration) ([3]; strain 27956, substance alone)
0.038%: MIC [6]
0.077%: MIC [1] | MBC [2] | MBC [4] | MBC [5]

From patent US20140051650A1, “VAGINAL COMPOSITIONS BASED ON ALKYL POLYGLUCOSIDES” (EFFIK S.A., priority 2011, published 2014)
